Test results taken from patent publication US8450461B2, “Risperidone immunoassay” (Saladax Biomedical Inc., priority 2010, dated 2013).

Assays:
Format in all cases: binding, mouse
[1] = tested on: polyclonal antibodies to risperidone, bleed G1M1; experiment: Indirect competitive microtiter plate immunoassay (ELISA), cross-reactivity, polyclonal anti-serum bleed G1M1; details: polyclonal antibodies (Example 6a), relative to risperidone = 100%
Procedure: (§1) Ten female BALB/c mice were immunized i.p. with 100 μg/mouse of risperidone [9]-KLH immunogen, as prepared in Example 4, emulsified in Complete Freund's Adjuvant. The mice were boosted once, four weeks after the initial injection with 100 μg/mouse of the same immunogen emulsified in Incomplete Freund's Adjuvant. Twenty days after the boost, test bleeds containing polyclonal antibodies from each mouse were obtained by orbital bleed. The test bleeds were fractionated by centrifugation to yield anti-sera. The anti-sera from these test bleeds, which contain polyclonal antibodies to risperidone [9]-KLH immunogen, were evaluated in Examples 8a and 9.
(§2) The ELISA method for measuring risperidone concentrations was performed in polystyrene microtiter plates (Nunc MaxiSorp F8 Immunomodules) optimized for protein binding and containing 96 wells per plate. Each well was coated with risperidone [9]-BSA conjugate (prepared as in Example 5a) by adding 300 μL of risperidone [9]-BSA conjugate at 10 μg/mL in 0.05M sodium carbonate, pH 9.6, and incubating for three hours at room temperature. The wells were washed with 0.05M sodium carbonate, pH 9.6 and then were blocked with 375 μL of 5% sucrose, 0.2% sodium caseinate solution for 30 minutes at room temperature. After removal of the post-coat solution the plates were dried at 37° C. overnight.
as §2, with “[14]-BSA” for “[9]-BSA”, “5b)” for “5a)”
(§3) This procedure is to find the dilution of antibody or anti-serum to be tested for displacement as in Example 9. The ELISA method for screening risperidone antibodies (produced in Example 6) was performed with the microtiter plates that were sensitized with risperidone-BSA conjugate prepared in Examples 7a and 7b. The antibody screening assay was performed by diluting the murine serum from test bleeds (as in Example 6) containing polyclonal risperidone antibodies to 1:2,000, 1:[…] and 1:54,000 (volume/volume) in phosphate buffered saline containing 0.1% BSA and 0.01% thimerosal. […] (volume/volume) in phosphate buffered saline containing 0.1% BSA and 0.01% thimerosal. […]

[2] = tested on: polyclonal antibodies to risperidone, bleed G1M3; experiment: Indirect competitive microtiter plate immunoassay (ELISA), cross-reactivity, polyclonal anti-serum bleed G1M3; details: polyclonal antibodies (Example 6a), relative to risperidone = 100%
Procedure: as §1, §2
as §2, with “[14]-BSA” for “[9]-BSA”, “5b)” for “5a)”
as §3

[3] = tested on: polyclonal antibodies to risperidone, bleed G2M1; experiment: Indirect competitive microtiter plate immunoassay (ELISA), cross-reactivity, polyclonal anti-serum bleed G2M1; details: polyclonal antibodies (Example 6a), relative to risperidone = 100%
Procedure: as §1, §2
as §2, with “[14]-BSA” for “[9]-BSA”, “5b)” for “5a)”
as §3

[4] = tested on: polyclonal antibodies to risperidone, bleed G2M5; experiment: Indirect competitive microtiter plate immunoassay (ELISA), cross-reactivity, polyclonal anti-serum bleed G2M5; details: polyclonal antibodies (Example 6a), relative to risperidone = 100%
Procedure: as §1, §2
as §2, with “[14]-BSA” for “[9]-BSA”, “5b)” for “5a)”
as §3

[5] = tested on: monoclonal antibody to risperidone 4B9-21; experiment: Indirect competitive microtiter plate immunoassay (ELISA), cross-reactivity, monoclonal antibody 4B9-21; details: monoclonal antibody number 4B9-21 (Example 6b); relative to risperidone = 100%
Procedure: (§4) Mice from example 6a that were immunized with risperidone [9]-KLH prepared in 4 were used to produce monoclonal antibodies. For monoclonal antibodies starting three days before the fusion, the mice were injected i.p. with 400 μg (3 days before fusion), 200 μg (2 days before fusion), and 200 μg (1 day before fusion) of risperidone [9]-KLH in PBS/DMSO prepared in example 4. Spleen cells were isolated from the selected mice and fused with 2×10^7 SP2/0 cells with 50% polyethylene glycol 1500 according to the method of Coligan, J. E. et al., eds., Current Protocols in Immunology, 2.5.1-2.5.8, (1992), Wiley & Sons, NY. The fused cells were plated on ten 96-well plates in DMEM/F12 supplemented with 20% FetalClone I, 2% L-glutamine (100 mM) and 2% 50× HAT. Two to three weeks later, the hybridoma supernatant was assayed for the presence of anti-risperidone antibodies by ELISA (as in example 8b). Cells from the wells that gave positive ELISA results (example 8b) were expanded to 24 well plates. Clones positive by ELISA were subcloned twice by limiting dilution according to the method disclosed in Coligan, J. E. et al., eds., Current Protocols in Immunology, 2.5.8-2.5.17, 1992, Wiley & Sons, NY. Hybridoma culture supernatants containing monoclonal antibody from selected subclones were confirmed for risperidone binding by a competitive ELISA (example 9). […]

[6] = tested on: monoclonal antibody to risperidone 5D5-3; experiment: Indirect competitive microtiter plate immunoassay (ELISA), cross-reactivity, monoclonal antibody 5D5-3; details: monoclonal antibody number 5D5-3 (Example 6b); relative to risperidone = 100%
Procedure: as §4

[7] = tested on: antibodies to risperidone (pool of antibodies); experiment: Competitive immunoassay / screening with the pool of antibodies to risperidone
Procedure: The present invention relates to novel antibodies and monoclonal antibodies to risperidone and paliperidone. The antisera of the invention can be conveniently produced by immunizing host animals with the immunogens of this invention. Suitable host animals include rodents, such as, for example, mice, rats, rabbits, guinea pigs and the like, or higher mammals such as goats, sheep, horses and the like. […]
The ELISA method for determining IC50 values and cross-reactivity was performed with the microtiter plates that were sensitized with risperidone-BSA conjugates as described in Examples 7a and 7b. […] The assays were all performed by diluting the concentration of the anti-sera or monoclonal antibodies in each of the wells to the titer determined in Example 8a. […] Following the incubation for color development, 50 μL of stop solution (1.5% sodium fluoride in di H2O) was added to each well to stop the color development and after 20 seconds of shaking the absorbance was determined at 650 nm (Molecular Devices Plate Reader). The amount of antibody in a well was proportional to the absorbance measured and inversely proportional to the amount of risperidone in the sample. The IC50's of risperidone and paliperidone were determined by constructing dose-response curves with the absorbance in the wells plotted versus analyte concentration in the wells. […]

Row | SMILES | Cross-reactivity of competitive immunoassay [1] | Cross-reactivity of competitive immunoassay [2] | Cross-reactivity of competitive immunoassay [3] | Cross-reactivity of competitive immunoassay [4] | Cross-reactivity of competitive immunoassay [5] | Cross-reactivity of competitive immunoassay [6] | binding of the antibodies to the compound (screening) ([7]; antibodies from immunized mice screened against the compound) | percent cross-reactivities relative to risperidone ([7]; measured with this pool of antibodies, ratio of IC50 risperidone to IC50 paliperidone)
1 | Cc1nc2n(c(=O)c1CCN1CCC(c3noc4cc(F)ccc34)CC1)CC(O)CC2 (stereo not shown) [7-hydroxy-risperidone] | 50% | 66% | 65% | 69% | 30% | 39% |  | 
2 | Fc1ccc2c(C3CCNCC3)noc2c1 [N-dealkyl-risperidone] | 0.02% | 0.07% | 0.09% | 0.1% |  |  |  | 
3 | Cc1nc2n(c(=O)c1CCN1CCC(c3noc4cc(F)ccc34)CC1)CCCC2O (stereo not shown) [Paliperidone, paliperidone] | 81% | 80% | 98% | 81% |  |  | substantial binding | 100±20%
4 | Cc1nc2n(c(=O)c1CCN1CCC(c3noc4cc(F)ccc34)CC1)CCCC2 [Risperidone, risperidone] | 100% | 100% | 100% | 100% | 100% | 100% |  | 
